# Measurements: US20250304620A1, “ANTIMICROBIAL PEPTIDE AND APPLICATION THEREOF” (priority 2023, published 2025)
# Marks after values point to notes of the source that are not given here. Non-standard residues stand in square brackets, D forms with d. Residues, ends and D or L forms follow the SMILES beside them. d2Nal = N[C@H](Cc1ccc2ccccc2c1)C(=O)O
# Legend:
# [1] = tested on: Staphylococcus aureus (NRS 384); conditions: NRS 384, 3 h
# Procedure: Trypsin (250 U/mg, pH=8.0) and AMPs (LV-1 to LV-30) were mixed in a ratio of 1:10 (w/w) and added to a reaction buffer (0.2 M sodium phosphate, 1 mM CaCl2), pH 7.5), and then incubated at 37° C. for 3 h.
# [2] = tested on: Shigella flexneri ATCC 12022; assay: MIC against clinically common bacterial strain; type: cell-based
# How it was run: (§1)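 Minimum inhibitory concentration served as the read-out, obtained with a twofold serial dilution microdilution method run per CLSI guidelines and performed in five parallel replicates.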
# [3] = tested on: Pseudomonas aeruginosa ATCC 27853; assay: Injectable formulations on mice infected with peritonitis; type: in vivo, ICR mice; conditions: twice a day for 3 days; for Number of mice that died on each day after infection: day 1 / Number of mice that died on each day after infection: day 2 / Number of mice that died on each day after infection: day 3 / Number of mice that died on each day after infection: day 4 / Number of mice that died on each day after infection: day 5 / Average survival times (Days): n = 10; for Average survival times (Days): observed for 14 d
# How it was run: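 ICR mice of both sexes (10 per group) infected intraperitoneally with 0.2 mL P. aeruginosa ATCC 27853 at 1×10^9 CFU/mL. Injectable formulations dosed by body weight via tail vein twice daily for 3 days; deaths and survival time recorded over 14 d.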
# [4] = tested on: Pseudomonas aeruginosa ATCC 27853; type: cell-based
# How it was run: as §1
# [5] = tested on: Trichophyton ATCC MYA-4438; type: cell-based
# How it was run: as §1
# [6] = tested on: Klebsiella pneumoniae ATCC 700603; type: cell-based
# How it was run: as §1
# [7] = tested on: Escherichia coli ATCC 25922; type: cell-based
# How it was run: as §1
# [8] = tested on: Corynebacterium ATCC 7715; type: cell-based
# How it was run: as §1
# [9] = tested on: Serratia marcescens ATCC 29021; type: cell-based
# How it was run: as §1
# Enterococcus ATCC 29212 = type: cell-based
# How it was run: as §1
# Candida krusei ATCC 6258 = type: cell-based
# How it was run: as §1
# [10] = tested on: Candida albicans ATCC MYA-2876; type: cell-based
# How it was run: as §1
# [11] = tested on: Candida tropicalis ATCC 750; type: cell-based
# How it was run: as §1
# [12] = tested on: Escherichia coli ATCC 25922; assay: Oral formulations on mice with systemic bacterial infection; type: in vivo, ICR mice; conditions: three times a day for 7 days; for Number of mice that died on each day after infection: day 4 / Number of mice that died on each day after infection: day 5 / Number of mice that died on each day after infection: day 6 / Number of mice that died on each day after infection: day 7 / Number of mice that died on each day after infection: day 8 / Average survival times (Days): n = 10; for Average survival times (Days): observed for 14 d
# How it was run: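 ICR mice of both sexes, 10 per group, infected i.p. with 0.2 mL E. coli ATCC 25922 at 1×10^7 CFU/mL. Compounds gavaged by body weight immediately after infection, three times daily for 7 days; deaths and survival time recorded over 14 d observation.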
# [13] = tested on: vancomycin-resistant Enterococcus (VRE); type: cell-based
# How it was run: (§2)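 Peptides were serially diluted twofold following CLSI susceptibility standards, clinical resistant bacteria were exposed, and the MIC was recorded; five parallel repeats.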
# [14] = tested on: Methicillin-resistant Staphylococcus aureus (MRSA); type: cell-based; conditions: Methicillin-resistant
# How it was run: as §2
# [15] = tested on: carbapenem-resistant Pseudomonas aeruginosa (CRPA); type: cell-based; conditions: carbapenem-resistant (CRPA)
# How it was run: as §2
# [16] = tested on: carbapenem-resistant Klebsiella pneumoniae (CRKP); type: cell-based; conditions: carbapenem-resistant (CRKP)
# How it was run: as §2
# [17] = tested on: carbapenem-resistant Escherichia coli (CREC); type: cell-based; conditions: carbapenem-resistant (CREC)
# How it was run: as §2
smiles,measurement,setting,value
CC(=O)N[C@H](CCCCN)C(=O)N[C@H](CCCCN)C(=O)N[C@H](CC(C)C)C(=O)N[C@H](CC(C)C)C(=O)N[C@H](Cc1ccc2ccccc2c1)C(=O)N[C@H](CCCNC(=N)N)C(=O)N[C@H](CC(C)C)C(=O)N[C@H](CCCCN)C(=O)N[C@H](Cc1ccc2ccccc2c1)C(=O)N[C@H](CCCNC(=N)N)C(=O)N[C@H](CCCCN)C(N)=O [LV-19] (Ac-[dK][dK][dL][dL][d2Nal][dR][dL][dK][d2Nal][dR][dK]-NH2),Trypsin MIC,[1],1 µg/mL
same,MIC Shigella flexneri ATCC 12022,[2],4 µg/mL
same,Number of mice that died on each day after infection: day 1,[3]; 0.2 mg/kg via tail vein,3 Mouse
same,Number of mice that died on each day after infection: day 2,[3]; 0.2 mg/kg via tail vein,2 Mouse
same,Number of mice that died on each day after infection: day 3,[3]; 0.2 mg/kg via tail vein,0 Mouse
same,Number of mice that died on each day after infection: day 4,[3]; 0.2 mg/kg via tail vein,0 Mouse
same,Number of mice that died on each day after infection: day 5,[3]; 0.2 mg/kg via tail vein,0 Mouse
same,Average survival times (Days),[3]; 0.2 mg/kg via tail vein,7.7** Days
same,Number of mice that died on each day after infection: day 1,[3]; 1 mg/kg via tail vein,0 Mouse
same,Number of mice that died on each day after infection: day 2,[3]; 1 mg/kg via tail vein,0 Mouse
same,Number of mice that died on each day after infection: day 3,[3]; 1 mg/kg via tail vein,1 Mouse
same,Number of mice that died on each day after infection: day 4,[3]; 1 mg/kg via tail vein,0 Mouse
same,Number of mice that died on each day after infection: day 5,[3]; 1 mg/kg via tail vein,2 Mouse
same,Average survival times (Days),[3]; 1 mg/kg via tail vein,11.1**** Days
same,Number of mice that died on each day after infection: day 1,[3]; 5 mg/kg via tail vein,1 Mouse
same,Number of mice that died on each day after infection: day 2,[3]; 5 mg/kg via tail vein,0 Mouse
same,Number of mice that died on each day after infection: day 3,[3]; 5 mg/kg via tail vein,2 Mouse
same,Number of mice that died on each day after infection: day 4,[3]; 5 mg/kg via tail vein,0 Mouse
same,Number of mice that died on each day after infection: day 5,[3]; 5 mg/kg via tail vein,0 Mouse
same,Average survival times (Days),[3]; 5 mg/kg via tail vein,10.5**** Days
same,survival time of mice infected with Pseudomonas aeruginosa,"[3]; tail vein, observed 14 d",superior to those of the Levofloxacin group
same,MIC Pseudomonas aeruginosa ATCC 27853,[4],1 µg/mL
same,MIC Trichophyton ATCC MYA-4438,[5],8 µg/mL
same,MIC Klebsiella pneumoniae ATCC 700603,[6],2 µg/mL
same,MIC Escherichia coli ATCC 25922,[7],1 µg/mL
same,MIC Corynebacterium ATCC 7715,[8],2 µg/mL
same,MIC Serratia marcescens ATCC 29021,[9],8 µg/mL
same,MIC Enterococcus ATCC 29212,Enterococcus ATCC 29212,2 µg/mL
same,MIC Candida krusei ATCC 6258,Candida krusei ATCC 6258,16 µg/mL
same,MIC Candida albicans ATCC MYA-2876,[10],8 µg/mL
same,MIC Candida tropicalis ATCC 750,[11],4 µg/mL
same,Number of mice that died on each day after infection: day 4,[12]; 0.2 mg/kg gavage,0 Mouse
same,Number of mice that died on each day after infection: day 5,[12]; 0.2 mg/kg gavage,2 Mouse
same,Number of mice that died on each day after infection: day 6,[12]; 0.2 mg/kg gavage,1 Mouse
same,Number of mice that died on each day after infection: day 7,[12]; 0.2 mg/kg gavage,2 Mouse
same,Number of mice that died on each day after infection: day 8,[12]; 0.2 mg/kg gavage,1 Mouse
same,Average survival times (Days),[12]; 0.2 mg/kg gavage,9.4** Days
same,Number of mice that died on each day after infection: day 4,[12]; 1 mg/kg gavage,0 Mouse
same,Number of mice that died on each day after infection: day 5,[12]; 1 mg/kg gavage,1 Mouse
same,Number of mice that died on each day after infection: day 6,[12]; 1 mg/kg gavage,1 Mouse
same,Number of mice that died on each day after infection: day 7,[12]; 1 mg/kg gavage,1 Mouse
same,Number of mice that died on each day after infection: day 8,[12]; 1 mg/kg gavage,0 Mouse
same,Average survival times (Days),[12]; 1 mg/kg gavage,11.6**** Days
same,Number of mice that died on each day after infection: day 4,[12]; 5 mg/kg gavage,0 Mouse
same,Number of mice that died on each day after infection: day 5,[12]; 5 mg/kg gavage,2 Mouse
same,Number of mice that died on each day after infection: day 6,[12]; 5 mg/kg gavage,1 Mouse
same,Number of mice that died on each day after infection: day 7,[12]; 5 mg/kg gavage,1 Mouse
same,Number of mice that died on each day after infection: day 8,[12]; 5 mg/kg gavage,0 Mouse
same,Average survival times (Days),[12]; 5 mg/kg gavage,10.7*** Days
same,survival time of mice infected with Escherichia coli,"[12]; gavage, observed 14 d",superior to those of the Levofloxacin group
same,MIC VRE,[13],4 µg/mL
same,MIC MRSA,[14],4 µg/mL
same,MIC CRPA,[15],2 µg/mL
same,MIC CRKP,[16],4 µg/mL
same,MIC CREC,[17],8 µg/mL
